Key:
[1] = MGPS disproportionality analysis of FDA AERS spontaneous reports of hepatic events; set-up: species or system human; key to EBGM: ratio of observed to expected reports (independence assumption); conditions: for Count / EBGM: FDA AERS, 18 months post approval; for EB05: lower bound of 90% confidence interval of EBGM
Protocol: A disproportionality analysis was performed for ambrisentan and bosentan using information from the FDA Adverse Events Reporting System (AERS) spontaneous reporting database. […] The value of the EBGM reflects the ratio of the number of observed reports of a drug-adverse event combination with the number expected under an assumption of independence between the drugs and events in the database. […] In order to reduce the occurrence of false positives due to age group or gender influence, the safety reports were stratified by subject age group and gender. For each drug, the AERS data were analyzed for the 18-month period following the respective approval dates for ambrisentan and bosentan: 15 Jun. 2007 to 14 Dec. 2008 for ambrisentan and 21 Nov. 2001 to 20 May 2003 for bosentan. […] This threshold is generally accepted as a signal of disproportional reporting (Szarfman, et al., “Use of screening algorithms and computer systems to efficiently signal higher-than-expected combinations of drugs and events in the US FDA's spontaneous reports database.” Drug Safety 25, 381-392 (2002)). The comparator dataset in the calculations for ambrisentan and bosentan included data for all other drugs in the AERS database.

[2] = biological target: T1, human bile salt export pump (BSEP) (Homo sapiens, UniProt O95342); experiment: Inhibition of hepatic transporter BSEP, Sf9 cell membrane vesicles; assay type: biochemical
T1 construct: expressed in transfected cells; host or cells: Sf9 cell membrane vesicles
T1 sequence (O95342 whole entry): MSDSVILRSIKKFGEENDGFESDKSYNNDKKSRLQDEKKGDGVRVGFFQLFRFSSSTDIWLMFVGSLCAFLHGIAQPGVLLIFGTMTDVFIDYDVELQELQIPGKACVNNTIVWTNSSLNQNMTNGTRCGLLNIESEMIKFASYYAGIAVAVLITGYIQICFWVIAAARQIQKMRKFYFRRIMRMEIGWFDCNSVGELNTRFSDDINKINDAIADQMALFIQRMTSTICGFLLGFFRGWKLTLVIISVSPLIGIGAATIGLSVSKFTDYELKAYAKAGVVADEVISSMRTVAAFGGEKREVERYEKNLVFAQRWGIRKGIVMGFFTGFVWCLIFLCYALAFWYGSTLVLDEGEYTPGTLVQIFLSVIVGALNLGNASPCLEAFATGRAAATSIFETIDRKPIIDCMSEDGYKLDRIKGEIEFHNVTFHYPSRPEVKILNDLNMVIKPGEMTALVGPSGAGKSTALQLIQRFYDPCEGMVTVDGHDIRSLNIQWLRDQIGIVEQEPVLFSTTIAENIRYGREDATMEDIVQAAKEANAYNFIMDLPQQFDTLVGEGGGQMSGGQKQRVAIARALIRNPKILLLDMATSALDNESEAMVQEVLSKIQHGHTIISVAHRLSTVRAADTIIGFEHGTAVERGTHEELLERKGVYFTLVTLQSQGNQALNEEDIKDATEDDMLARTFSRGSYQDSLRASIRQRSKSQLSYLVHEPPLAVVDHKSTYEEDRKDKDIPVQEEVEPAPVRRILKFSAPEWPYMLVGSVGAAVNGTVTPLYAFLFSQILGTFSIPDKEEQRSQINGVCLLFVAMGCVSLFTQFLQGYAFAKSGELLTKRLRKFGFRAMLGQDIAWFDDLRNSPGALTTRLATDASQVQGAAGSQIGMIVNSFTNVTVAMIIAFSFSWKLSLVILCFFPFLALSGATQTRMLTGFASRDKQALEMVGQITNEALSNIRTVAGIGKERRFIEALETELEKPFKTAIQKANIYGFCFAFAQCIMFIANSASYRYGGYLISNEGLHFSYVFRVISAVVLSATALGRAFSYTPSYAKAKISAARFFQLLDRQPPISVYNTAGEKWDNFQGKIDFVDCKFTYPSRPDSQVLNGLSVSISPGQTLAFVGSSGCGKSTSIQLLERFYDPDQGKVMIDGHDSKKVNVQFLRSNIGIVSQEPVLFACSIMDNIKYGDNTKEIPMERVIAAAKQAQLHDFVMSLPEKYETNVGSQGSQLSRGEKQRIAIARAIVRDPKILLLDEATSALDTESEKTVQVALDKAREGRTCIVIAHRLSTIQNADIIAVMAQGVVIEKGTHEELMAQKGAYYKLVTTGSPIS
Protocol: (§1) Inhibition constants (IC50) were measured for human bile salt export pump (BSEP), sodium taurocholate cotransporting polypeptide (NTCP), multidrug resistance protein 2 (MRP2), P-glycoprotein (Pgp), breast cancer resistance protein (BCRP), organic anion-transporting polypeptide 1B1 (OATP1B1), and OATP1B3 in transfected cell-lines. Known inhibitors were used as positive controls.

[3] = biological target: T2, organic anion-transporting polypeptide 1B1 (OATP1B1) (Homo sapiens, UniProt Q9Y6L6); experiment: Inhibition of OATP1B1, transfected CHO cells; assay type: cell-based
T2 construct: expressed in transfected cells; host or cells: CHO
T2 sequence (Q9Y6L6 1-691): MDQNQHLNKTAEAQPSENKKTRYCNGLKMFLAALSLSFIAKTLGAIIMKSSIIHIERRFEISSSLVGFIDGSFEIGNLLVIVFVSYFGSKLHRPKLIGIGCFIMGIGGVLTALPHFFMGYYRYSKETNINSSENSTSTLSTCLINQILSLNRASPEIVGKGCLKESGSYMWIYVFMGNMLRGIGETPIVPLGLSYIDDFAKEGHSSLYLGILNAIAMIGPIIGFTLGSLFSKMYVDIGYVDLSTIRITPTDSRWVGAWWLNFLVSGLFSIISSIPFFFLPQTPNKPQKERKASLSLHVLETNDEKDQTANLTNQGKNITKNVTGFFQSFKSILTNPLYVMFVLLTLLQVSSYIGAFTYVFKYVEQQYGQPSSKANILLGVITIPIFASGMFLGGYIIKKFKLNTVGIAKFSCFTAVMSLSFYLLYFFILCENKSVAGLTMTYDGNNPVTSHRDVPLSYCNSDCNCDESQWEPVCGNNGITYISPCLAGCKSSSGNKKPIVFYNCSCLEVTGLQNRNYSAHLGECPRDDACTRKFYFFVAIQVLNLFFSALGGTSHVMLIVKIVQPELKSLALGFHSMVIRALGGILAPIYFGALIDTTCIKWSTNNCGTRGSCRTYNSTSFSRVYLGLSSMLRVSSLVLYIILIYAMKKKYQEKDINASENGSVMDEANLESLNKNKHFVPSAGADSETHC
Protocol: as §1

OATP1B3 = biological target: T3, OATP1B3 (Homo sapiens, UniProt Q9NPD5); experiment: Inhibition of OATP1B3, transfected CHO cells; assay type: cell-based; conditions: OAT1B3
T3 construct: expressed in transfected cells; host or cells: CHO
T3 sequence (Q9NPD5 1-702): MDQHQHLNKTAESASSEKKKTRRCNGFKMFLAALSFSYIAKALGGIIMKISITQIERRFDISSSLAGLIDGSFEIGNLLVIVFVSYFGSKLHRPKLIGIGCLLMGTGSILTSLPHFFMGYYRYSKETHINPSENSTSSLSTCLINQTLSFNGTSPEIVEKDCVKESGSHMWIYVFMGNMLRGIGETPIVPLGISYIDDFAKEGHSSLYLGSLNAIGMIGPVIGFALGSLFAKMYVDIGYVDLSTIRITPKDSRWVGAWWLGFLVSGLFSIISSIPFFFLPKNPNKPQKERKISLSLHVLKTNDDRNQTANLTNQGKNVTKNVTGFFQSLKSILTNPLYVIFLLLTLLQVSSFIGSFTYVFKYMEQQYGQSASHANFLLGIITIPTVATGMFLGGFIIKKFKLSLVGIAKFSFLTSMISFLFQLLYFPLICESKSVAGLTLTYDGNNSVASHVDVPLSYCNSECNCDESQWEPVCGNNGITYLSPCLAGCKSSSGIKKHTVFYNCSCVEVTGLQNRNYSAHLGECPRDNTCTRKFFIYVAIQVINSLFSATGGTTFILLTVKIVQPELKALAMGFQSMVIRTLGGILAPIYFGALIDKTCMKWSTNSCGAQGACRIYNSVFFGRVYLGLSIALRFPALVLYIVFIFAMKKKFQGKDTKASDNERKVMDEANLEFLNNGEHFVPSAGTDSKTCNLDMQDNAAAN
Protocol: as §1

[4] = Blood alkaline phosphate increased
[5] = Blood bilirubin unconjugated increased

Compound COC(c1ccccc1)(c1ccccc1)[C@H](Oc1nc(C)cc(C)n1)C(=O)O [Ambrisentan, (25)-2-[(4,6-dimethylpyrimidin-2-yl)oxy]-3-methoxy-3,3-diphenylpropanoic acid] has a Count ([1]; ALT increased) of 3, an EBGM ([1]; ALT increased) of 1.55 and a Count ([1]; AST increased) of 3. The EBGM ([1]; AST increased) was 1.63, the Count ([1]; Ascites) was 2 and the EBGM ([1]; Ascites) was 1.80. It also gave a Count ([1]; Bilirubin conjugated increased) of 0, a Count [1, 4] of 1 and an EBGM [1, 4] of 0.86. It also gave a Count ([1]; Blood bilirubin increased) of 0, a Count [1, 5] of 0 and a Count ([1]; Hepatic congestion) of 0. The Count ([1]; Hepatic encephalopathy) was 0, the Count ([1]; Hepatic enzyme increased) was 3 and the EBGM ([1]; Hepatic enzyme increased) was 1.67. For the same compound, the Count ([1]; Hepatic failure) was 0, the Count ([1]; Hepatic function abnormal) was 0 and the Count ([1]; Hepatic infarction) was 0. The Count ([1]; Hepatic necrosis) was 0, the Count ([1]; Hepatic steatosis) was 1 and the EBGM ([1]; Hepatic steatosis) was 1.06. It also gave a Count ([1]; Hepatitis acute) of 0, a Count ([1]; Hepatitis) of 1 and an EBGM ([1]; Hepatitis) of 0.89. The Count ([1]; Hepatomegaly) was 0, the Count ([1]; Hepatosplenomegaly) was 0 and the Count ([1]; INR increased) was 1. For the same compound, the EBGM ([1]; INR increased) was 0.78, the Count ([1]; Liver disorder) was 2 and the EBGM ([1]; Liver disorder) was 1.43. The Count ([1]; Liver function test abnormal) was 10, the EBGM ([1]; Liver function test abnormal) was 6.11 and the Count ([1]; Prothrombin time prolonged) was 1. For the same compound, the EBGM ([1]; Prothrombin time prolonged) was 1.29, the Count ([1]; Spider naevus) was 0 and the Count ([1]; Transaminases increased) was 2. The EBGM ([1]; Transaminases increased) was 1.96, the EB05 ([1]; liver function test abnormal) was 3.5 and the “effect on BSEP” value [2] was “no measurable effect”. It also gave an IC50 [3] of 47 ± 21.3 µM and an IC50 (OATP1B3) of 44.6 ± 23.8 µM.
In the case of COc1ccccc1Oc1c(NS(=O)(=O)c2ccc(C(C)(C)C)cc2)nc(-c2ncccn2)nc1OCCO [Bosentan], the Count ([1]; ALT increased) is reported as 57, the EBGM ([1]; ALT increased) is reported as 11.57 and the Count ([1]; AST increased) is reported as 60. It also gave an EBGM ([1]; AST increased) of 12.52, a Count ([1]; Ascites) of 8 and an EBGM ([1]; Ascites) of 3.60. It also gave a Count ([1]; Bilirubin conjugated increased) of 5, an EBGM ([1]; Bilirubin conjugated increased) of 13.91 and a Count [1, 4] of 46. For the same compound, the EBGM [1, 4] was 18.79, the Count ([1]; Blood bilirubin increased) was 37 and the EBGM ([1]; Blood bilirubin increased) was 18.75. For the same compound, the Count [1, 5] was 2, the EBGM [1, 5] was 3.28 and the Count ([1]; Hepatic congestion) was 5. The EBGM ([1]; Hepatic congestion) was 13.18, the Count ([1]; Hepatic encephalopathy) was 1 and the EBGM ([1]; Hepatic encephalopathy) was 1.00. For the same compound, the Count ([1]; Hepatic enzyme increased) was 0, the Count ([1]; Hepatic failure) was 3 and the EBGM ([1]; Hepatic failure) was 1.07. It also gave a Count ([1]; Hepatic function abnormal) of 2, an EBGM ([1]; Hepatic function abnormal) of 0.91 and a Count ([1]; Hepatic infarction) of 1. The EBGM ([1]; Hepatic infarction) was 1.44, the Count ([1]; Hepatic necrosis) was 1 and the EBGM ([1]; Hepatic necrosis) was 0.94. For the same compound, the Count ([1]; Hepatic steatosis) was 0, the Count ([1]; Hepatitis acute) was 1 and the EBGM ([1]; Hepatitis acute) was 1.04. It also gave a Count ([1]; Hepatitis) of 5, an EBGM ([1]; Hepatitis) of 1.63 and a Count ([1]; Hepatomegaly) of 1. For the same compound, the EBGM ([1]; Hepatomegaly) was 0.79, the Count ([1]; Hepatosplenomegaly) was 2 and the EBGM ([1]; Hepatosplenomegaly) was 2.09. It also gave a Count ([1]; INR increased) of 9, an EBGM ([1]; INR increased) of 3.08 and a Count ([1]; Liver disorder) of 1. It also gave an EBGM ([1]; Liver disorder) of 0.56, a Count ([1]; Liver function test abnormal) of 38 and an EBGM ([1]; Liver function test abnormal) of 9.59. For the same compound, the Count ([1]; Prothrombin time prolonged) was 2, the EBGM ([1]; Prothrombin time prolonged) was 1.22 and the Count ([1]; Spider naevus) was 1. For the same compound, the EBGM ([1]; Spider naevus) was 1.46, the Count ([1]; Transaminases increased) was 5 and the EBGM ([1]; Transaminases increased) was 3.58. The EB05 ([1]; blood alkaline phosphate increased) was 14.6, the EB05 ([1]; liver function test abnormal) was 6.9 and the “effect on BSEP” value [2] was “inhibition was observed”. For the same compound, the IC50 ([2]; BSEP) was 54.4 µM, the IC50 [3] was 5 ± 2 µM and the IC50 (OATP1B3) was 5.2 ± 2.1 µM.

From patent US20140275094A1, “METHOD FOR TREATING PULMONARY ARTERIAL HYPERTENSION IN A PATIENT NOT HAVING IDIOPATHIC PULMONARY FIBROSIS” (GILEAD SCIENCES, INC., priority 2012, published 2014)
